# Assay results: paper PMC4488747, “Inhibition of P-glycoprotein Gene Expression and Function Enhances Triptolide-induced Hepatotoxicity in Mice” (Scientific Reports, 2015)
# Tests used:
# [1] = tested on: BALB/C mice; assay: Liver histopathology (HE staining) in mice; type: in vivo; conditions: TP 1 mg/kg iv, 24 h, TP = NC-siRNA group, tariquidar and mdr1a-1 siRNA = given before TP
# Method: For TP plasma kinetic study and toxicological evaluation, mice were divided into four groups (n = 5 each) to collect blood and tissue samples: (1) normal + saline group; (2) 1.0 mg/kg TP + 15 nmol NC-siRNA group; (3) 1.0 mg/kg TP + 15 nmol mdr1a-siRNA group; (4) 1.0 mg/kg TP + 10 mg/kg tariquidar group. In order to avoid the complication caused by drug absorption or possible intestinal first-pass effect, TP and the inhibitor were intravenously administrated to mice. The siRNA group was intravenously injected with NC-siRNA or mdr1a-siRNA 2 days before TP dose. For TP + tariquidar group, the mice were received an intravenous tariquidar dose 20 min prior to the TP injection. Blood samples were collected at 2, 5, 10, 15, 30, 60 and 120 min after TP dosing. To assess the liver exposure of TP, liver tissue samples were collected from another set of mice at 5, 30, 60 and 120 min after dosing. […] The concentrations of TP in plasma and liver tissue were measured by a validated LC-MS/MS method. […]
# At 24 h of TP treatment, blood and liver tissue samples were collected from the mice in plasma kinetic study. Serum ALT and AST levels were determined with a CL8000 automated biochemical analyzer (Shimadzu, Japan) after serum was separated by centrifugation at 900 g for 10 min. […] The total protein concentration was quantified by the BCA assay. Bcl-2 and Bax proteins were measured by western blot.
# [2] = tested on: CYP reductase KO mice; parameters: method as in PMID 21596114; conditions: cited from earlier work
# [3] = tested on: P-glycoprotein (P-gp); parameters: method as in PMID 24065861; conditions: ATPase assay with rat mdr1 membrane; cited from earlier work
# [4] = Preliminary experiment: effect of NC-siRNA on pharmacokinetics of TP in mice; type: in vivo; conditions: mice, plasma; for AUC(0-t) / Cmax / MRT / Vd / clearance: 1 mg/kg
# Method: Effect of NC-siRNA on pharmacokinetic of TP
# Mice were divided into two groups to collect blood samples (n=5 each): (1) 1.0 mg/kg TP + saline group; (2) 1.0 mg/kg TP + 15 nmol NC-siRNA group. The siRNA group was intravenously injected with NC-siRNA 2 days before TP dose. Blood samples were collected at 2, 5, 10, 15, 30, 60 and 120 min after TP dosing. The concentrations of TP in plasma and liver were measured by a validated LC-MS/MS method.
# [5] = tested on: BALB/C mice; assay: Serum ALT and AST (TP-induced hepatotoxicity) in mice; type: in vivo; conditions: TP 1 mg/kg iv + NC-siRNA, 24 h after TP
# Method: (§1) For TP plasma kinetic study and toxicological evaluation, mice were divided into four groups (n = 5 each) to collect blood and tissue samples: (1) normal + saline group; (2) 1.0 mg/kg TP + 15 nmol NC-siRNA group; (3) 1.0 mg/kg TP + 15 nmol mdr1a-siRNA group; (4) 1.0 mg/kg TP + 10 mg/kg tariquidar group. In order to avoid the complication caused by drug absorption or possible intestinal first-pass effect, TP and the inhibitor were intravenously administrated to mice. The siRNA group was intravenously injected with NC-siRNA or mdr1a-siRNA 2 days before TP dose. For TP + tariquidar group, the mice were received an intravenous tariquidar dose 20 min prior to the TP injection. Blood samples were collected at 2, 5, 10, 15, 30, 60 and 120 min after TP dosing. To assess the liver exposure of TP, liver tissue samples were collected from another set of mice at 5, 30, 60 and 120 min after dosing. Three TP groups were design for this experiment, including TP + NC-siRNA group, TP + mdr1a-siRNA group and TP + tariquidar group. The liver tissue samples were weighed and then homogenized in 10 volume (w:v) of ice-cold saline. The concentrations of TP in plasma and liver tissue were measured by a validated LC-MS/MS method. Prior to the above animal study, a preliminary experiment was performed to assess the possible differences in liver P-gp protein expression (Figure S1) and TP plasma kinetics between NC-siRNA treated mice and normal mice (with saline) (Figure S2 and supplemental Table 1). […] Therefore, NC-siRNA group was used as the control in the following animal study.
# At 24 h of TP treatment, blood and liver tissue samples were collected from the mice in plasma kinetic study. Serum ALT and AST levels were determined with a CL8000 automated biochemical analyzer (Shimadzu, Japan) after serum was separated by centrifugation at 900 g for 10 min. Liver tissue samples were divided into two parts, the first half was kept at −80 °C until MDA and SOD measurements using MDA and SOD assay kits (Nanjing Jiancheng Bioengineering Institute, Nanjing, China) according to the manufacturer’s instructions. The other half was fixed with 4% paraformaldehyde solution and then dehydrated, embedded in paraffin and sectioned at a thickness of 5 μm. Four paraffin sections from each mouse were dewaxed, rehydrated and stained with hematoxylin-eosin (HE) for overall morphological evaluation. The total protein concentration was quantified by the BCA assay. Bcl-2 and Bax proteins were measured by western blot.
# [6] = Hepatic concentrations of triptolide in mice; type: in vivo; conditions: mice liver
# Method: as §1
# The TP in plasma and tissue samples was quantitatively analyzed by a published LC-MS/MS method. The method was slightly modified and validated for analysis of plasma and liver tissue samples. Plasma and tissue homogenate were pretreated with 3-fold volume of methanol-acetonitrile (1:1, v/v) containing 20 ng/ml propranolol to precipitate proteins, and then centrifuged at 4°C, 14,000 g for 10 min. The supernatant (10 μl) was injected into LC-MS/MS for analysis. An Aglient 6410B triple quadrupole mass spectrometer equipped with Agilent1290 Infinity UHPLC system (Agilent Technologies, Santa Clara, CA) was used. TP and propranolol (internal standard, IS) were eluted from an Agilent C18 column (dp = 3.5 μm, 2.1 × 50 mm, Agilent, MA) using a mobile phase gradient (A: water with 0.1% formic acid and 2.5 mM ammonium formate, B: acetonitrile with 0.1% formic acid). The gradient was run as: 0–2.5 min hold at 95% B; 2.5–3 min, a linear gradient to 10% B; 3–4 min hold at 10% B. Flow rate was 0.2 ml/min. TP and propranolol were detected in positive ion mode using single reaction monitoring: TP, m/z 378.1/360.1, IS, m/z 260.0/116.0. Under the above optimized condition, no significant endogenous interferences were detected at the peak regions for TP and IS in all the biological specimens. The calibration curves of TP were linear (r^2 > 0.99) over the concentration range of 1–1000 ng/ml. The lower limit of quantification was at 1 ng/ml. The intra and inter-day precisions (RSD) were all below 11% and the assay accuracies (RE) were in the range from 87% to 113%. The recovery was above 80% for both plasma and tissue samples.
# [7] = C57, mouse, iv, TP 1.0 mg/kg + saline
# [8] = C57, mouse, iv, TP 1.0 mg/kg + 15 nmol NC-siRNA iv 2 days before
structure (smiles),measurement,setting,value
"CC(C)[C@]12O[C@H]1[C@@H]1O[C@]13[C@]1(O[C@H]1C[C@H]1C4=C(CC[C@@]13C)C(=O)OC4)[C@@H]2O [TP, Triptolide]",Histopathological changes in liver (HE),[1],hepatocellular hydropic degeneration and vacuolization
same,Increase fold of TP hepatic exposure,[2]; at 120 min,about 2 fold
same,Increase in AST level,[2],about 2 fold
same,P-gp substrate identification,[3],substrate
same,half-life,[4]; [7],12.6 ± 3 min
same,AUC(0-t),[4]; [8],99.1 ± 11.7 ng·h/mL
same,Cmax,[4]; [8],330 ± 18.2 ng/mL
same,MRT,[4]; [8],15.6 ± 2.4 min
same,Vd,[4]; [8],3.1 ± 0.6 L/kg
same,clearance,[4]; [8],173 mL/min/kg
same,AUC(0-t),[4]; [7],104 ± 13.4 ng·h/mL
same,Cmax,[4]; [7],351 ± 10.9 ng/mL
same,MRT,[4]; [7],13.8 ± 1.8 min
same,Vd,[4]; [7],3 ± 0.3 L/kg
same,clearance,[4]; [7],165 mL/min/kg
same,t1/2,[4]; TP 1.0 mg/kg + 15 nmol NC-siRNA iv 2 days before,12.6 ± 3.6 min
same,"Serum ALT level, folds of the normal group",[5],4.2 folds
same,"Serum AST level, folds of the normal group",[5],5.4 folds
same,Hepatic concentration of TP,"[6]; 5 min after TP 1.0 mg/kg iv, NC-siRNA pretreatment (control)",1953.3 ± 786.7 ng/g protein
same,Hepatic concentration of TP,"[6]; 5 min after TP 1.0 mg/kg iv, mdr1a-siRNA iv 2 days before",4278.0 ± 653.1 ng/g protein
same,Hepatic concentration of TP,"[6]; 5 min after TP 1.0 mg/kg iv, tariquidar 10 mg/kg iv 20 min prior",2857.3 ± 909.4 ng/g protein
same,Hepatic concentration of TP,"[6]; 30 min after TP 1.0 mg/kg iv, NC-siRNA pretreatment (control)",394.9 ± 41.2 ng/g protein
same,Hepatic concentration of TP,"[6]; 30 min after TP 1.0 mg/kg iv, mdr1a-siRNA iv 2 days before",950.8 ± 232.1 ng/g protein
same,Hepatic concentration of TP,"[6]; 30 min after TP 1.0 mg/kg iv, tariquidar 10 mg/kg iv 20 min prior",683.9 ± 61.3 ng/g protein
same,Hepatic concentration of TP,"[6]; 60 min after TP 1.0 mg/kg iv, NC-siRNA pretreatment (control)",170.6 ± 66.3 ng/g protein
same,Hepatic concentration of TP,"[6]; 60 min after TP 1.0 mg/kg iv, mdr1a-siRNA iv 2 days before",326.2 ± 22.4 ng/g protein
same,Hepatic concentration of TP,"[6]; 60 min after TP 1.0 mg/kg iv, tariquidar 10 mg/kg iv 20 min prior",302.8 ± 22.7 ng/g protein
same,Hepatic concentration of TP,"[6]; 120 min after TP 1.0 mg/kg iv, NC-siRNA pretreatment (control)",37.4 ± 12.2 ng/g protein
same,Hepatic concentration of TP,"[6]; 120 min after TP 1.0 mg/kg iv, mdr1a-siRNA iv 2 days before",84.8 ± 14.5 ng/g protein
same,Hepatic concentration of TP,"[6]; 120 min after TP 1.0 mg/kg iv, tariquidar 10 mg/kg iv 20 min prior",36.1 ± 14.4 ng/g protein
